The text below walks through data of patent publication US20230114811A1, “GLYCOSYLTRANSFERASES, POLYNUCLEOTIDES ENCODING THESE AND METHODS OF USE” (THE NEW ZEALAND INSTITUTE FOR PLANT AND FOOD RESEARCH …, priority 2020, published 2023).

Data set [1] deals with recombinant PGT2 cloned from M. toringoides. Kind of data set: Substrate specificity of recombinant PGT2, UDP-glucoside as sugar donor, products determined by LC-MS/MS. It counts as biochemical. Conditions: amount of product formed relative to conversion of phloretin to trilobatin set at 100%. As to the method:
The products of each reaction were determined by LC-MS/MS. […] Quercetin-3-O-glucoside was detected as a reaction product using quercetin (FIG. 8A-F) with a lower conversion rate of 9.1% (Table 7).

The conditions of data set [2]: Jia et al., 2008; cited from earlier work.
Data set [3] in a line: Isosweetness comparison test between trilobatin and sucrose (sensory panel). It counts as in vivo. Conditions: n=5 participants. The protocol:
Five participants with high acuity for trilobatin in the triangle test were selected to perform the isosweetness comparison test between trilobatin and sucrose. Each participant was given one trilobatin solution and eight sucrose solutions at different concentrations to taste. Solutions were prepared as described above for the apple leaf teas. The trilobatin solutions were presented at 12.3, 18.5, 27.8 and 41.7 mg per 100 ml, while the sucrose solutions were presented at 296.3, 444.4, 592.6, 666.7, 888.9, 1000, 1333.3 and 2000 mg per 100 ml.

Substrate in data set [4]: O=C(CCc1ccc(O)cc1)c1c(O)cc(O)cc1O
Kind of data set: Km/Vmax determination for recombinant PGT2 (glycosyltransferase activity assay, HPLC). It is filed as biochemical, M. toringoides. Conditions: other: phloretin 4-500 μM, fixed UDP-glucose 500 μM, pH 9.0, 0.1 M Tris-HCl, 40° C., 10 min.

Where “and” joins values, the source holds several entries; their conditions need not be identical. Equal values may be shown once.

In the case of `O=C(CCc1ccc(O)cc1)c1c(O)cc(O[C@@H]2O[C@H](CO)[C@@H](O)[C@H](O)[C@H]2O)cc1O` [trilobatin, 1-[2,6-dihydroxy-4-[(2S,3R,4S,5S,6R)-3,4,5-trihydroxy-6-(hydroxymethyl)oxan-2-yl]oxyphenyl]-3-(4-hydroxyphenyl)propan-1-one], the “Conversion (%)” value in data set [1] was determined as 0%. Further, in data set [2], the “sweeter than sucrose (reported)” value is roughly 100 × and the sweetness detection threshold is 3 to 200 mg/L. For the same molecule, in data set [3] (R^2=0.98, mean±SE), the “Isosweetness (trilobatin vs sucrose)” value was 35.2+1.66. In addition, the sweeter than sucrose in data set [3] (trilobatin purified from leaves of crabapple hybrid ‘Adams’) is roughly 35 fold.
As to `O=C(O)/C=C/c1ccc(O)c(O)c1` [caffeic acid], in data set [1], the “Conversion (%)” value turned out to be 0%.
For `O=C1C[C@@H](c2ccc(O)cc2)Oc2cc(O)cc(O)c21` [naringenin], the “Conversion (%)” value in data set [1] came to 0%.
Still for that read-out and setting: the figure for `O=c1c(O)c(-c2ccc(O)c(O)c2)oc2cc(O)cc(O)c12` [quercetin] is 9.1% and 9.1 ± 0.1%; for `COc1ccc([C@@H]2CC(=O)c3c(O)cc(O[C@@H]4O[C@H](CO)[C@@H](O)[C@H](O)[C@H]4O[C@@H]4O[C@@H](C)[C@H](O)[C@@H](O)[C@H]4O)cc3O2)cc1O` [neohesperidin] it is 0%; for `O=C(CCc1ccc(O)cc1)c1c(O)cc(O)cc1O` [phloretin, 3-(4-hydroxyphenyl)-1-(2,4,6-trihydroxyphenyl)propan-1-one] it is 100.0 ± 6.1%.
Turning to `O=C(CCc1ccc(O)c(O)c1)c1c(O)cc(O)cc1O` [3-OH phloretin], the “Conversion (%)” value in data set [1] is 58.7 ± 2.3%.
For `O=C(CCc1ccc(O)c(O)c1)c1c(O)cc(O[C@@H]2O[C@H](CO)[C@@H](O)[C@H](O)[C@H]2O)cc1O` [sieboldin, 3-hydroxyphloretin-4′-O-glucoside], in data set [1], the “Conversion (%)” value was found to be 0%.
Same read-out and setting: in the case of `O=C(/C=C/c1ccc(O)c(O)c1)O[C@@H]1C[C@](O)(C(=O)O)C[C@@H](O)[C@H]1O` [chlorogenic acid] it was 0%; in that of `O=C(O)/C=C/c1ccc(O)cc1` [4-coumaric acid], 0%.

B1: PGT2 (Malus toringoides) (protein)
chain: MEATAIVLYPSPLIGHLVSMVELGKLILTRHPSLCIHILITTPPYRANDTDSYITSVSAANPSLIFHHLPTISLPPSLASSRNHEILAFELAPLYNPNVHQALVSISHNFSIKAFVMDFFCYVGLPVATELNIPSYFFFTSSANTLASSLYLPTLHNIIDKSLKDLNILLNIPGVPPMPSSDMPQPTLDRNQKVYEHVQGSSKQFPKSAGIIVNTFESLEPRALRAIWDGLCLPENVPTPPVYPIGPLIVSHGGGGRGAECLKWLDSQPSGSVVFLCFGSLGLFSKEQLKEIAIGLENSGHRFLWVVRNPPAQNQIGLDIKESDPELKSLLPDGFLDRTKDRGLVVKSWAPQAAVLNHNSVGGFVSHCGWNSVLESVCAGVPIVAWPLYAEQRFNRVVLVKEIKIAMPMNESEDGFVRAAEVEKRITELMDSEEGASIRKRTKDLQNNAHAALGETGSSGVALTKLLEFWGKTC
In the case of B1, in data set [4], the Km worked out at 18.0 ± 6.7 µM and the Vmax amounted to 1.85 ± 0.17 nmol/min.

What is called Km is the concentration of substrate that gives half-maximal velocity. By Vmax is commonly meant the top rate of the reaction or transport when substrate is in excess.
